From patent publication US4362728A, “Haloguanidine compounds, pharmaceutical compositions and methods of use” (ICI Americas Inc., priority 1979, dated 1982)

Tested on: male Swiss-Webster mice
Experiment: intraperitoneal toxicity observation in mice
Type: in vivo
Details: 50 mg./kg. intraperitoneal in 10% w/v dimethylsulphoxide in saline; observed four hours and checked 24 hours after dosing

SMILES | toxic symptoms
CNC(=C[N+](=O)[O-])NCCCCc1csc(N=C(N)NCC(F)(F)F)n1 [Example 9] | No toxic symptoms
CNC(=NS(C)(=O)=O)NCCCCc1csc(NC(N)=NCC(F)(F)F)n1 [Example 11, 2-[2-(2,2,2-trifluoroethyl)guanidino]-4-[4-(2-methylsulphonyl-3-methylguanidino)butyl]thiazole] | No toxic symptoms
